Assay results published in article doi:10.1101/2024.02.12.580006v1 (biorxiv, 2024).
Values belong to the molecule of their own block, whether it stands above or below them.

Columns and labels:
PttCesA8 = target: T1, PttCesA8 (Populus tremula x Populus tremuloides, UniProt Q6J8X0); experiment: UDP-Glo luminescence, product inhibition, exponential fit; format: biochemical
T1 sequence (Q6J8X0 1-978): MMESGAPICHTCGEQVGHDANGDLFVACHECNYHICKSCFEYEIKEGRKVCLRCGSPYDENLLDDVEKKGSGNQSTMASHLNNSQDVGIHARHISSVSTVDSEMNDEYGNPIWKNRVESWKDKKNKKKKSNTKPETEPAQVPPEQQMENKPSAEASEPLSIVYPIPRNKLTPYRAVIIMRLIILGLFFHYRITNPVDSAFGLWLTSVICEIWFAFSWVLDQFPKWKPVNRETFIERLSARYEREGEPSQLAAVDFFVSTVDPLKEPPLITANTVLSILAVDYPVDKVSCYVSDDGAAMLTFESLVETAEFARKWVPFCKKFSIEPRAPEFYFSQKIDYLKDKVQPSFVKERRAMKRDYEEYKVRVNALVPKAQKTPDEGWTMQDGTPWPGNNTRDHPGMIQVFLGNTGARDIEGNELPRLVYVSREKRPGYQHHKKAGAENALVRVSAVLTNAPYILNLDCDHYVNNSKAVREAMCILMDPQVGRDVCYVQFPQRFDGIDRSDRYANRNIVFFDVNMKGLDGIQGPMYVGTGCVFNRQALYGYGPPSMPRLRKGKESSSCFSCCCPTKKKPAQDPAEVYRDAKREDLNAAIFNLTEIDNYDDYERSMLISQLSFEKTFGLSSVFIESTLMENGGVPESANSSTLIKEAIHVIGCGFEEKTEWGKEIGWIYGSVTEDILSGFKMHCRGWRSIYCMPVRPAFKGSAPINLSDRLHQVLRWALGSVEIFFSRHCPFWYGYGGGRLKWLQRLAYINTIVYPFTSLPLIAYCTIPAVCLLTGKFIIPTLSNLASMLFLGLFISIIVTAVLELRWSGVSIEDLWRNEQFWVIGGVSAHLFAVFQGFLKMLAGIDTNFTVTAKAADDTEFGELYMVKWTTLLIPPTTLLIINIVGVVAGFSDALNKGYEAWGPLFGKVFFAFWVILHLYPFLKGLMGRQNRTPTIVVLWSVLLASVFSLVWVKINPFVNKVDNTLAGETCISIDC

SeHas = target: T2, SeHas (Streptococcus dysgalactiae, UniProt O50201); experiment: as above; format: biochemical
T2 sequence (O50201 1-417): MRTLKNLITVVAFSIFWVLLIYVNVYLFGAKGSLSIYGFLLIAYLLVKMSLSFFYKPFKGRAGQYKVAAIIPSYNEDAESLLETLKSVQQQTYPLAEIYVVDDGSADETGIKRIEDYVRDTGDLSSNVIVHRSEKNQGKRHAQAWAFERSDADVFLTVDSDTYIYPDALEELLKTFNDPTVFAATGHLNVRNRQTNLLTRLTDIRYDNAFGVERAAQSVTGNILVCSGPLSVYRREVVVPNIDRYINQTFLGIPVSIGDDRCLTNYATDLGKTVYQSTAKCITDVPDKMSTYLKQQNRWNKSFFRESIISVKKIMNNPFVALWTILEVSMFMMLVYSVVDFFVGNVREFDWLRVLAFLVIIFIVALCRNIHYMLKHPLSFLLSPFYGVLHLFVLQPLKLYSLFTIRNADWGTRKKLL

purified protein = substrate: O=c1ccn([C@@H]2O[C@H](CO[P@@](=O)(O)O[P@@](=O)(O)O[C@H]3O[C@H](CO)[C@@H](O)[C@H](O)[C@H]3O)[C@@H](O)[C@H]2O)c(=O)[nH]1; experiment: purified protein; conditions: 20 mM MnCl2, 37 °C, 30 min, proteoliposomes

Ki (PttCesA8): 10.1 µM
Ki (SeHas): 24.4 µM
Molecule: O=c1ccn([C@@H]2O[C@H](COP(=O)(O)OP(=O)(O)O)[C@@H](O)[C@H]2O)c(=O)[nH]1 [UDP]

B1: PttCesA8 (Populus tremula x Populus tremuloides) (protein)
chain: T1 sequence (Q6J8X0 1-978)
Km (purified protein): 295.8 µM
kcat (purified protein): 21.57 s⁻¹
